Test results from paper PMC10824666 (Nature Cancer, 2023).
Read-outs that look alike come from different tables or passages of the source. Values belong to the compound of their own block, whether it stands above or below them.

How the values were obtained:
Assay in all cases: biochemical
Design in all cases: Eurofins DiscoverX kinase panel, competitive binding assay at 1 uM, percent of DMSO control
Settings in all cases: competitive binding, percent of DMSO control
Abl_unphos = target: T1, Abl_unphos (Homo sapiens, UniProt P00519)
T1 construct: gene ABL1; non-phosphorylated
T1 sequence (P00519 whole entry): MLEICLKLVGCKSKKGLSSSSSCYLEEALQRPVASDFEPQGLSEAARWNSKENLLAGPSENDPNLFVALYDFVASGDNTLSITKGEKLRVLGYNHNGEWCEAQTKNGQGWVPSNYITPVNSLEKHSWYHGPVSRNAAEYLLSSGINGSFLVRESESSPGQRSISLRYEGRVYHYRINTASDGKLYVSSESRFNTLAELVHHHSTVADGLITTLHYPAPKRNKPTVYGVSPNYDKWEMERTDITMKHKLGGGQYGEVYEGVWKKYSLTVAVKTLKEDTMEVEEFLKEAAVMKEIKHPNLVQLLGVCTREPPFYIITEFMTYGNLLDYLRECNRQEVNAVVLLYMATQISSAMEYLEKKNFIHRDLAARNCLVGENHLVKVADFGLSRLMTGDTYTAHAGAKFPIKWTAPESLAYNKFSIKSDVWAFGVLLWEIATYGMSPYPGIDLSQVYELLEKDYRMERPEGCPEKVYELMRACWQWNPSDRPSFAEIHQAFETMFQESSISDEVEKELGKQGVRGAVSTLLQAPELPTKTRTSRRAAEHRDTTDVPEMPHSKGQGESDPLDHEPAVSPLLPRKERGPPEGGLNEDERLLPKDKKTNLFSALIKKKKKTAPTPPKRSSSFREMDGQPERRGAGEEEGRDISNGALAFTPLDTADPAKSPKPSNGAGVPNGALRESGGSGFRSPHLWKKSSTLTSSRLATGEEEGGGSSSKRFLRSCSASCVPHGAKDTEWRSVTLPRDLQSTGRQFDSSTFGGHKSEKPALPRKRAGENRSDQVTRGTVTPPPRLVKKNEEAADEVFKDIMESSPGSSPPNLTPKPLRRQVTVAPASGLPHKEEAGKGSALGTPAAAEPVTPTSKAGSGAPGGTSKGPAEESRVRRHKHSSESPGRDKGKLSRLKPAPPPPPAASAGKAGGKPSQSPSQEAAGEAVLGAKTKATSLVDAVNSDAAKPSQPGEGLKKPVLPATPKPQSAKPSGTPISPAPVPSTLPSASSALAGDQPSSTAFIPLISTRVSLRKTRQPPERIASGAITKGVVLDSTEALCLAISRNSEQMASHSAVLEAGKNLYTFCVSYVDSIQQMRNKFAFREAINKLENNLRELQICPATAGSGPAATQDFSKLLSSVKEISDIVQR
In short: (§1)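 Single-point profiling at 1 µM compound in a competition-binding format against 96 kinases, read out as POC relative to control; n = 1.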

BTK = BTK (Homo sapiens, UniProt Q06187)
Chain of BTK (Q06187 whole entry): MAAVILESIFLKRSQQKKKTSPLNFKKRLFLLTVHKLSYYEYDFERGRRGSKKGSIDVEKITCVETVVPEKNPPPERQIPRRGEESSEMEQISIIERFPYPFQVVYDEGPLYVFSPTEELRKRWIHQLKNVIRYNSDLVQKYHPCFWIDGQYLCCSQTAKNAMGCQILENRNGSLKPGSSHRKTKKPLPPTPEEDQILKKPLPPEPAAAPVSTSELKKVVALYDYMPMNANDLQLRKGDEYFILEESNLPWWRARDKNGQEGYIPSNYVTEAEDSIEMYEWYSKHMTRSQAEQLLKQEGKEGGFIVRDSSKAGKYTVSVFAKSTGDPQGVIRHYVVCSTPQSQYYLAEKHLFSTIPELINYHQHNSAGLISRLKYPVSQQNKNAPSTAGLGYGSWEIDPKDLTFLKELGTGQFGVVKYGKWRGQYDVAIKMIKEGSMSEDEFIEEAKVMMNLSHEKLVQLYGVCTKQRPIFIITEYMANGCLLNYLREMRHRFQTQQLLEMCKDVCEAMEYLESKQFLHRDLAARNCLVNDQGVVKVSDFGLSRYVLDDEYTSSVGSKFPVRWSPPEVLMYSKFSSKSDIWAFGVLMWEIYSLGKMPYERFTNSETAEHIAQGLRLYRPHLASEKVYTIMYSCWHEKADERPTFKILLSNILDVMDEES
In short: as §1

HIPK1 = HIPK1 (Homo sapiens, UniProt Q86Z02)
Chain of HIPK1 (Q86Z02 whole entry): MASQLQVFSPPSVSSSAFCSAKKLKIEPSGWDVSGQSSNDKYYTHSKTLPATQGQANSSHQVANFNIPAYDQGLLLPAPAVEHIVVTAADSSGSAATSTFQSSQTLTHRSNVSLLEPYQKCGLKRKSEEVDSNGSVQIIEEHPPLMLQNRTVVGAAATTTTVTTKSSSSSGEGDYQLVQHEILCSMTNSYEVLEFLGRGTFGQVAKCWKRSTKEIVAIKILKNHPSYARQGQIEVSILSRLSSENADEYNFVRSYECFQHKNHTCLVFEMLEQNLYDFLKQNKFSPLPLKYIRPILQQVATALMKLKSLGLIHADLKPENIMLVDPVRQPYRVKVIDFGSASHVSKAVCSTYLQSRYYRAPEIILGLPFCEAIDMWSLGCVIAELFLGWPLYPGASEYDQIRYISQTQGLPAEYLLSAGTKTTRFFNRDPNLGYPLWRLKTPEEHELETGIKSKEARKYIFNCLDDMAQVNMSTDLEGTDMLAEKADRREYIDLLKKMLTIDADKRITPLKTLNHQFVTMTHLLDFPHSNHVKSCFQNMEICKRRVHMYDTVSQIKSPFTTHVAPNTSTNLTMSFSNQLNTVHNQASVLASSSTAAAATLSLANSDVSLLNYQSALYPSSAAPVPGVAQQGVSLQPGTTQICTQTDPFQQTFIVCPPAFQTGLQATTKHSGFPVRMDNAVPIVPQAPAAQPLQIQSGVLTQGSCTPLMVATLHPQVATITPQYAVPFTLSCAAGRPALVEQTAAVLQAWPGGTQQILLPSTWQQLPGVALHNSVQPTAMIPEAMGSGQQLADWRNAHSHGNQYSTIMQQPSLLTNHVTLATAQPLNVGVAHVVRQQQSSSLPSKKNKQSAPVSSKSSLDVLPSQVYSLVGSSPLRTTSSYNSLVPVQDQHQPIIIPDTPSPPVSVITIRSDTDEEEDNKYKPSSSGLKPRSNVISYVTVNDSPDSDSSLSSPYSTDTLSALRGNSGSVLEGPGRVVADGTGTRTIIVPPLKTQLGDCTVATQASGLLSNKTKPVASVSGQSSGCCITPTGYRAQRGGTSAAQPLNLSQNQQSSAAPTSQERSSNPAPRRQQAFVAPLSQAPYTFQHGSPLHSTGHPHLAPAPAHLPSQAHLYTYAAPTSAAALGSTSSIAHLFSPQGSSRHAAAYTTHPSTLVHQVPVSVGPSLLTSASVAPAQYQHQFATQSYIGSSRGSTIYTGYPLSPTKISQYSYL
In short: as §1

PI3K alpha = target: T2, PI3K alpha (Homo sapiens, UniProt P42336)
T2 construct: gene PIK3CA
T2 sequence (P42336 whole entry): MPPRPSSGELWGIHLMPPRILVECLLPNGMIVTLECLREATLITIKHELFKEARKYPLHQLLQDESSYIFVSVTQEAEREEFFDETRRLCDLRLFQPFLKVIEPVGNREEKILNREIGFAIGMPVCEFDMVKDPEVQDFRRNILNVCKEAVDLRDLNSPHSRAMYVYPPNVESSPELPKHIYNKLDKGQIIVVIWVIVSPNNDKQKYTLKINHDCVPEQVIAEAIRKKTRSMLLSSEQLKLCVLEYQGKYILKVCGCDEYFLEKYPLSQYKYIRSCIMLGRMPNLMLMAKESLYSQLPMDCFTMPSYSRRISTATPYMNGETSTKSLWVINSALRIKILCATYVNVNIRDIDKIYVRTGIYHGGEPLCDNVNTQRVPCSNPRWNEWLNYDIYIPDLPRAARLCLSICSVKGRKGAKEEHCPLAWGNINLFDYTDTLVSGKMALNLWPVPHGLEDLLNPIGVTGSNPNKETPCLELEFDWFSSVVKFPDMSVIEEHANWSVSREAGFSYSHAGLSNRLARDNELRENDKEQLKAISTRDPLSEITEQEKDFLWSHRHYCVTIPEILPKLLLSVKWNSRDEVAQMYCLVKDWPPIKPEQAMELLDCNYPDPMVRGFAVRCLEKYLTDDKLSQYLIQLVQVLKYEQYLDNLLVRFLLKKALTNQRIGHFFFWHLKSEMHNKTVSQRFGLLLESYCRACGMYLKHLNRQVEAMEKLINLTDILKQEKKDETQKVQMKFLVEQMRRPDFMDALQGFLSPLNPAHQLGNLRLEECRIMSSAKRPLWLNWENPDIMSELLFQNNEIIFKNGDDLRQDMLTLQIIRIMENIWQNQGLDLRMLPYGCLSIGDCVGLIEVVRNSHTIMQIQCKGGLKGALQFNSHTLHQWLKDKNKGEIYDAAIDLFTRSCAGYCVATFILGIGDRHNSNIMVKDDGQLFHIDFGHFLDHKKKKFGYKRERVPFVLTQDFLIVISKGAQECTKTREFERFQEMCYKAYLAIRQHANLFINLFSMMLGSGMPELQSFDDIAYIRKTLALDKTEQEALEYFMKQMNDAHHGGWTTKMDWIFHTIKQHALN
In short: as §1

EGFR = EGFR (Homo sapiens, UniProt P00533)
In short: as §1

IGF-1R = target: T3, IGF-1R (Homo sapiens, UniProt P08069)
T3 construct: gene IGF1R
In short: as §1

ERK2 = target: T4, ERK2 (Homo sapiens, UniProt P28482)
T4 construct: gene MAPK1
T4 sequence (P28482 whole entry): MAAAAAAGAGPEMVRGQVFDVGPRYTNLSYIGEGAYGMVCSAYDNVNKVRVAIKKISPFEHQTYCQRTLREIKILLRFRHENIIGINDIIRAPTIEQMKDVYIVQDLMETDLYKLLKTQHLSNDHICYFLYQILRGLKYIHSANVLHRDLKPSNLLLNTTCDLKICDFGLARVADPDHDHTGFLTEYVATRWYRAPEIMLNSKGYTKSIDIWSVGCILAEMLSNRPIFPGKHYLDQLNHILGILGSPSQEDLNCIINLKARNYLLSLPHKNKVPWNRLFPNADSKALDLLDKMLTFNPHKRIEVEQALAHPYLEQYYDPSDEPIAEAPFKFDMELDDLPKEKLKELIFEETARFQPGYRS
In short: as §1

TSSK1B = target: T5, TSSK1B (Homo sapiens, UniProt Q9BXA7)
T5 sequence (Q9BXA7 1-367): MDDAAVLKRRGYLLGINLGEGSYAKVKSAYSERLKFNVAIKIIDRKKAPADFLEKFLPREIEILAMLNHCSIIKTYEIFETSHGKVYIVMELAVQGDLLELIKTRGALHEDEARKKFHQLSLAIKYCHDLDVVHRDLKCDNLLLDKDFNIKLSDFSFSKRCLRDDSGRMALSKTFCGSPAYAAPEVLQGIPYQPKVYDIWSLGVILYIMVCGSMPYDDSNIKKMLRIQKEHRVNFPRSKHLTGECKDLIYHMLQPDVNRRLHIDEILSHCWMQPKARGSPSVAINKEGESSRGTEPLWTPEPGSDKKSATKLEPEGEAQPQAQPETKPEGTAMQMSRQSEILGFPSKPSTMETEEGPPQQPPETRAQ
In short: as §1

[1] = read-out: Kinome Profiling performed by Eurofins DiscoverX / AM-1882, 1.0 µM / POC
[2] = read-out: Kinome Profiling performed by Eurofins DiscoverX / AM-5308, 1.0 µM / POC
[3] = read-out: Kinome Profiling performed by Eurofins DiscoverX / AM-0277, 1.0 µM / POC

remaining activity at 1 µM (Abl_unphos; [1]): 58%
remaining activity at 1 µM (BTK; [1]): 100%
remaining activity at 1 µM (HIPK1; [1]): 73%
remaining activity at 1 µM (PI3K alpha; [1]): 100%
remaining activity at 1 µM (EGFR; [1]): 100%
remaining activity at 1 µM (IGF-1R; [1]): 83%
remaining activity at 1 µM (ERK2; [1]): 100%
remaining activity at 1 µM (TSSK1B; [1]): 100%
Compound: CC(C)(C)NS(=O)(=O)c1cccc(NC(=O)c2ccc(S(=O)(=O)NC(C)(C)C)cc2N2CCC3(CC2)CC3)c1 [AM-1882]

remaining activity at 1 µM (Abl_unphos; [2]): 93%
remaining activity at 1 µM (BTK; [2]): 98.5%
remaining activity at 1 µM (HIPK1; [2]): 100%
remaining activity at 1 µM (PI3K alpha; [2]): 91.5%
remaining activity at 1 µM (EGFR; [2]): 83%
remaining activity at 1 µM (IGF-1R; [2]): 86.5%
remaining activity at 1 µM (ERK2; [2]): 89%
remaining activity at 1 µM (TSSK1B; [2]): 100%
Compound: C[C@@H]1CN(c2cccc(NC(=O)c3ccc(NS(=O)(=O)CCO)cc3N3CCC4(CC3)CC4)n2)CCO1 [AM-5308]

remaining activity at 1 µM (Abl_unphos; [3]): 100%
remaining activity at 1 µM (BTK; [3]): 100%
remaining activity at 1 µM (HIPK1; [3]): 61%
remaining activity at 1 µM (PI3K alpha; [3]): 100%
remaining activity at 1 µM (EGFR; [3]): 93%
remaining activity at 1 µM (IGF-1R; [3]): 97%
remaining activity at 1 µM (ERK2; [3]): 95%
remaining activity at 1 µM (TSSK1B; [3]): 84%
Compound: CC(C)(CO)Nc1ccc(C(=O)Nc2cccc(S(=O)(=O)C3CCCC3)c2)c(N2CCC3(CC2)CC3)n1 [AM-0277]
